# Measurements published in PMC11267547, “Advancing drug discovery through assay development: a survey of tool compounds within the human solute carrier superfamily” (Frontiers in Pharmacology, 2024).
# Tests used:
# SLC2A9 = SLC2A9 (Homo sapiens, UniProt Q9NRM0); experiment: Membrane potential dye-based assay, HEK293 cells stably expressing isoform-1 or -2 of SLC2A9 vs mock; type: cell-based; conditions: SLC2A9 isoform-1 or -2 cells compared with non-transduced (mock) cells
# Protocol: FLIPR Membrane Potential Blue Dye was used to detect the compound activities for those membrane transporters that are electrogenic or whose activity is associated with changes in membrane potential, as previously described ([Jensen and BräunerOsborne, 2004]). In brief, cells are seeded at cell line-specific density in black clear-bottom poly-D-Lysine-coated 384-well plates (Greiner Bio-One) in DMEM high-glucose medium with 10% FBS, 1% P/S, and 2 mM UltraGlutamine I (25 µL/well). Furthermore, 24 h after seeding, the culture medium is removed, and the cells are loaded with 20 µL/well of 0.5 X FMP Blue Dye in assay buffer (modified Tyrode’s buffer, 130 mM NaCl, 5 mM KCl, 1 mM MgCl2, 2 mM CaCl2, 5 mM NaHCO3, and 20 mM HEPES pH 7.4). The plates are subsequently incubated for at least 30 min at room temperature in the dark. Then, 10 µL/well of test compounds and controls is added at defined concentrations (0.5% DMSO final conc.) in the FLIPR TETRA instrument (Molecular Devices), and emitted fluorescence is recorded using a λexc 510–545-nm/λem 565–625-nm filter. The dose–response curves for the 19 compounds were prepared starting from 3 µM (final top concentration), the half-log serial dilution factor. For data analysis, Genedata Screener 19.0 software was used.
# SLC1A5 = target: T1, SLC1A5 (Homo sapiens, UniProt Q15758); experiment: AspSnFR biosensor assay, asparagine uptake in HEK293 cells; type: cell-based; conditions: cells pretreated with 50 µM
# T1 construct: host or cells: HEK293 expressing AspSnFR, transiently transfected with gpASNase1
# Protocol: HEK293 cells expressing AspSnFR were transiently transfected with EBPF-gpASNase1, trypsinized, and resuspended in 10% dialyzed FCS/PBS. Post-treatment with test compounds or vehicle, varying concentrations of asparagine were added. After a 30-min incubation at room temperature, flow cytometry analysis was performed using the BD LSR Fortessa X-20, following the protocol previously described ([Hellweg et al., 2024]).
# GPR35 = test system: GPR35; set-up: method as in ChEMBL; conditions: negative logarithm of the Molar value; ref ChEMBL; cited from earlier work
# PDE1C = test system: PDE1C; set-up: method as in ChEMBL; conditions: negative logarithm of the Molar value; ref ChEMBL; cited from earlier work
# MPC2 = test system: MPC2; set-up: method as in GtoPdb 3023, PubMed 35278701; conditions: negative logarithm of the Molar value of IC50, Ki, EC50, and Kd values; ref GtoPdb 3023, PubMed 35278701; cited from earlier work
# PDE10A = test system: PDE10A; set-up: method as in ChEMBL; conditions: negative logarithm of the Molar value; ref ChEMBL; cited from earlier work
# [1] = test system: all proteins (SLCs and non-SLCs); experiment: Selectivity entropy score against all proteins (S_other); set-up: species or system human
# Protocol: (§1) To assess the selectivity, a selectivity entropy score ([Uitdehaag and Zaman, 2011]) was implemented in KNIME. The entropy score was calculated twice for each compound, first against all SLCs (S_SLCs) and then against all proteins (S_other). Ideally, a low entropy value indicates a high selectivity of the inhibitor. However, as the inhibitors were not tested on a full panel of targets, but often only against one to three proteins, a low entropy value might not reflect its true selectivity. Therefore, Pareto ranking was performed using the corresponding node from the Erlwood KNIME open-source cheminformatics KNIME community extension. This ranking minimizes S_SLCs and S_other while maximizing the activity value and the count of SLCs the inhibitor was tested on.
# PDE5A = test system: PDE5A; set-up: method as in ChEMBL; conditions: negative logarithm of the Molar value; ref ChEMBL; cited from earlier work
# all SLCs = experiment: Selectivity entropy score against all SLCs (S_SLCs); set-up: species or system human; conditions: selectivity entropy score for all activity values against SLCs
# Protocol: as §1
# SLC28A2 (CNT2) = experiment: Impedance-based TRACT assay, HEK293–JumpIn–SLC28A2 cells, adenosine response; type: cell-based, human; conditions: 31.6 µM pretreatment, non-induced (-dox) cells
# ENT1 (SLC29A1) = target: T2, ENT1 (SLC29A1) (Homo sapiens, UniProt Q99808); experiment: Displacement assay with [3H]NBTI on human erythrocyte membranes; type: binding; conditions: [3H]NBTI displacement on erythrocyte membranes and TRACT assay (Figure 1E, Supplementary Figure S1)
# T2 construct: from tissue; host or cells: human erythrocyte membranes
# Protocol: Displacement assay with [3H]NBTI on human erythrocyte membranes expressing ENT1 (SLC29A1) was performed at 25°C, as described previously ([Vlachodimou et al., 2020]).
# T1 sequence (Q15758 whole entry): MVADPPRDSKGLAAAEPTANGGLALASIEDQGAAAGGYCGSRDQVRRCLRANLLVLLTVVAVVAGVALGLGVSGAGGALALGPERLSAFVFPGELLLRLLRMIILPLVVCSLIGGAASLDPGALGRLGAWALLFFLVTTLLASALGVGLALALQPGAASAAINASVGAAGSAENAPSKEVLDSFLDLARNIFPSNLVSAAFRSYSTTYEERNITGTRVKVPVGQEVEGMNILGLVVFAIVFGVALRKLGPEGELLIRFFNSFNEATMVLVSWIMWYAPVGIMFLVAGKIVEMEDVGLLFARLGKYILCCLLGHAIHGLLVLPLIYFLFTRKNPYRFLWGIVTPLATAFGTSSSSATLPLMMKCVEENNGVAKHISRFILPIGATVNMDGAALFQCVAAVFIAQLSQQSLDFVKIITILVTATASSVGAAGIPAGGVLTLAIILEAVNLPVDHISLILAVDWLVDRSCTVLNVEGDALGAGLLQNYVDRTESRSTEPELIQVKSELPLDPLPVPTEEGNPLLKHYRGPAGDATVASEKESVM
# T2 sequence (Q99808 whole entry): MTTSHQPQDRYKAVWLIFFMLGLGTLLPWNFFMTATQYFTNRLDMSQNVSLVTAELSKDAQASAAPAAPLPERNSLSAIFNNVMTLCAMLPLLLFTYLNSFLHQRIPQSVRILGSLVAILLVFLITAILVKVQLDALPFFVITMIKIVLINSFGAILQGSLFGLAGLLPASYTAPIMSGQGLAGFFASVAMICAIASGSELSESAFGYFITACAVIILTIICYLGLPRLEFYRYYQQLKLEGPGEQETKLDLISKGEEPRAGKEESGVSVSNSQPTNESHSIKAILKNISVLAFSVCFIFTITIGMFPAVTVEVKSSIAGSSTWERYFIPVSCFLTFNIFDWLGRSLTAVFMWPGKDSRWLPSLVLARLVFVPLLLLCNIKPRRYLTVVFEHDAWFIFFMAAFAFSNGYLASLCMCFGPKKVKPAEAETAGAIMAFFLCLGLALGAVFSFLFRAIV
# SLC2A9, sequence (Q9NRM0 51-540 limits assumed): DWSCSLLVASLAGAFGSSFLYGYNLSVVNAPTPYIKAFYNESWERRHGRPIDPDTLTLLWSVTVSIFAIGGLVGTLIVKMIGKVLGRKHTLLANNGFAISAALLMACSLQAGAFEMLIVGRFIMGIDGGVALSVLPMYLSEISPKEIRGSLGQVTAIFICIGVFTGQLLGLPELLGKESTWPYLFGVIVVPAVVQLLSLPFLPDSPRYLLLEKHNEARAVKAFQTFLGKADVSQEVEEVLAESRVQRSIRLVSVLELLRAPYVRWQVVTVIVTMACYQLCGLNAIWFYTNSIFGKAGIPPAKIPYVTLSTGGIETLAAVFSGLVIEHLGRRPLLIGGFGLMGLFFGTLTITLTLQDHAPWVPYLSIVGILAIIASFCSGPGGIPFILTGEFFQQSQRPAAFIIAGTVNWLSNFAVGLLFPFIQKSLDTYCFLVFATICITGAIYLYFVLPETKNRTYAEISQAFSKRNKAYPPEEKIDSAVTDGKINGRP
smiles,measurement,setting,value
CCc1oc2ccccc2c1C(=O)c1cc(Br)c(O)c(Br)c1 [Benzbromarone],effect in SLC2A9 membrane potential dye assay vs mock cells,SLC2A9,unspecific SLC2A9-independent effect
Cc1cccc(COc2ccccc2CN(CC[C@H](N)C(=O)O)Cc2ccccc2OCc2cccc(C)c2)c1 [V-9302],effect in SLC1A5 asparagine uptake assay,SLC1A5,no effect
CCCOc1ccccc1-c1nc2nn[nH]c2c(=O)[nH]1 [zaprinast],other_targets_act (GPR35),GPR35,5.71
same,other_targets_act (PDE1C),PDE1C,4.89
same,primary_SLC_act (MPC2),MPC2,6.52
same,other_targets_act (PDE10A),PDE10A,4.66
same,S_other,[1],1.11
same,other_targets_act (PDE5A),PDE5A,5.95
same,S_SLCs,all SLCs,0
O=C1CN(/N=C/c2ccc([N+](=O)[O-])o2)C(=O)N1 [nitrofurantoin],primary_SLC_act (MPC2),MPC2,5.48
same,S_other,[1],0
same,S_SLCs,all SLCs,0
Nc1ncnc2c1nc(NCc1ccc(-c3ccccc3)cc1)n2[C@@H]1O[C@H](CO)[C@@H](O)[C@H]1O [CNT2 inhibitor 1],selectivity for SLC28A2 in the TRACT assay,SLC28A2 (CNT2),not selective
same,inhibition of SLC29A1,ENT1 (SLC29A1),also inhibited SLC29A1
